From ChEMBL document CHEMBL5291721, “A preclinical secondary pharmacology resource illuminates target-adverse drug reaction associations of marketed drugs” (Nat Commun, 2023)

Columns and labels:
[1] = target: Prostaglandin G/H synthase 1 (Homo sapiens, UniProt P23219); format: functional
[2] = target: T1, Amine oxidase [flavin-containing] A (Homo sapiens, UniProt P21397); format: functional
T1 sequence (P21397 whole entry): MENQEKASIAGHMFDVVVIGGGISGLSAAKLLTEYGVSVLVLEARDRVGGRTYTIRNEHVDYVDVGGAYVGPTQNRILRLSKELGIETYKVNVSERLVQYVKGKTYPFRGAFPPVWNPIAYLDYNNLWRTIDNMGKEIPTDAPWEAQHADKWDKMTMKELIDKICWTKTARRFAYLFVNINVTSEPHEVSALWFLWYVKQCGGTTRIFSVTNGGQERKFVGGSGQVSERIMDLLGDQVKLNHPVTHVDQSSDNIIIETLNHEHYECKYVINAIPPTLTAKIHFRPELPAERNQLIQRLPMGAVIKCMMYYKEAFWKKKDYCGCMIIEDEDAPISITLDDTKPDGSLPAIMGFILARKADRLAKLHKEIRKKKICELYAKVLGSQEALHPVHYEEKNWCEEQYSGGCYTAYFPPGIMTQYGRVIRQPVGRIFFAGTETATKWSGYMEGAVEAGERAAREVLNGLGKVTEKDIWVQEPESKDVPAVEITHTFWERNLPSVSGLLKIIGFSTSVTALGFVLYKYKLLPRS

[3] = target: 3',5'-cyclic-AMP phosphodiesterase 4A (Homo sapiens, UniProt P27815); format: functional
[4] = target: Cannabinoid receptor 1 (Homo sapiens, UniProt P21554); format: functional, cell-based
[5] = target: T2, Muscarinic acetylcholine receptor M1 (Homo sapiens, UniProt P11229); format: functional, cell-based
T2 sequence (P11229 whole entry): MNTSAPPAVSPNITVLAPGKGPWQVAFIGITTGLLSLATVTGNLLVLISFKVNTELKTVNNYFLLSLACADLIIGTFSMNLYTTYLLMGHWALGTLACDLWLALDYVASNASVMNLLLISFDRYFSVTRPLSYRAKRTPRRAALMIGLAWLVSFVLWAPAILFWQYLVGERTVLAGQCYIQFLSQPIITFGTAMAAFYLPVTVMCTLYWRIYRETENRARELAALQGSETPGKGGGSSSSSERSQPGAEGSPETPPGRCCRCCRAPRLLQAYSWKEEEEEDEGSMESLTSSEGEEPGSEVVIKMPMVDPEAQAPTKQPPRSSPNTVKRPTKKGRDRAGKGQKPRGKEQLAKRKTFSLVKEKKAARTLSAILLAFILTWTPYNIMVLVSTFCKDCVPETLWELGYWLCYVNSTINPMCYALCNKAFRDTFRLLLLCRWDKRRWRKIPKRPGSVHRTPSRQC

[6] = target: Mu-type opioid receptor (Homo sapiens, UniProt P35372)
[7] = target: Acetylcholinesterase (Homo sapiens, UniProt P22303); format: functional
[8] = target: D(1A) dopamine receptor (Homo sapiens, UniProt P21728)
[9] = target: T3, Alpha-1A adrenergic receptor (Homo sapiens, UniProt P35348); format: functional, cell-based
T3 sequence (P35348 whole entry): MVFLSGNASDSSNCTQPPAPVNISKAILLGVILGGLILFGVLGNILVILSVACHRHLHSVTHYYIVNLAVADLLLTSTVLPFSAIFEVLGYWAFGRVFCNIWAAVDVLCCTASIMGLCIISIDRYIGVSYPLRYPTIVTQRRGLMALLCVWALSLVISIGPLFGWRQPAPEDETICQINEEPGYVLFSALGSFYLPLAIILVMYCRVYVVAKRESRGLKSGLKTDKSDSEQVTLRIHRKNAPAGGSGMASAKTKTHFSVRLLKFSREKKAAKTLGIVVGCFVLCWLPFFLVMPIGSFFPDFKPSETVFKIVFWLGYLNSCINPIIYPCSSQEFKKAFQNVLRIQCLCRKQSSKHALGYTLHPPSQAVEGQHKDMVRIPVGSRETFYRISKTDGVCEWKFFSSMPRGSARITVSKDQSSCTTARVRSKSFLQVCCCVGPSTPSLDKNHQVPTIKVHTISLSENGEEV

[10] = target: T4, Muscarinic acetylcholine receptor M2 (Homo sapiens, UniProt P08172)
T4 sequence (P08172 whole entry): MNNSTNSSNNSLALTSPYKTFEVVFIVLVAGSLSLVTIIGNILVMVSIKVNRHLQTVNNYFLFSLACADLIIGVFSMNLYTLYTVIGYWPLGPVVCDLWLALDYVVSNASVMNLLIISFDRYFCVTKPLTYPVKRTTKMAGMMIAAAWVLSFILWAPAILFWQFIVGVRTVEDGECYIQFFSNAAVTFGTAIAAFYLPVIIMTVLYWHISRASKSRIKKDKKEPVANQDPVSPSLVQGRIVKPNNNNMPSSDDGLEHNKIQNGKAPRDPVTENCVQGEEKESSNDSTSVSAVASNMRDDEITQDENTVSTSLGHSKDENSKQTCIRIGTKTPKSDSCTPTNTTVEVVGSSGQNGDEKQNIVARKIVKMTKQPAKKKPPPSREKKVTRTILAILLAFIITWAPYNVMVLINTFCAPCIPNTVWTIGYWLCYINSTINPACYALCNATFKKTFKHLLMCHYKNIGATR

[11] = target: Sodium-dependent noradrenaline transporter (Homo sapiens, UniProt P23975)
[12] = target: Prothrombin (Homo sapiens, UniProt P00734); format: functional
[13] = target: T5, Adenosine receptor A3 (Homo sapiens, UniProt P0DMS8)
T5 sequence (P0DMS8 whole entry): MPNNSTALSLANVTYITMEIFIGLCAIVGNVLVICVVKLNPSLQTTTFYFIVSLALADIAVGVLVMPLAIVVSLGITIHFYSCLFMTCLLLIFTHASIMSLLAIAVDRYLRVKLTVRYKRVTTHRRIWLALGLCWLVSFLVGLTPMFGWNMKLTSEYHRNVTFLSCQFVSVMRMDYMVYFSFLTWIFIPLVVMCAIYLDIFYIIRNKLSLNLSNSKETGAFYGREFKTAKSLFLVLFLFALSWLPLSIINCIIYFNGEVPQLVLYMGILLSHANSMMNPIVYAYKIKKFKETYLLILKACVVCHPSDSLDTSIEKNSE
Note: assay procedure not described here.

Sequence of Acetylcholinesterase (P22303 whole entry): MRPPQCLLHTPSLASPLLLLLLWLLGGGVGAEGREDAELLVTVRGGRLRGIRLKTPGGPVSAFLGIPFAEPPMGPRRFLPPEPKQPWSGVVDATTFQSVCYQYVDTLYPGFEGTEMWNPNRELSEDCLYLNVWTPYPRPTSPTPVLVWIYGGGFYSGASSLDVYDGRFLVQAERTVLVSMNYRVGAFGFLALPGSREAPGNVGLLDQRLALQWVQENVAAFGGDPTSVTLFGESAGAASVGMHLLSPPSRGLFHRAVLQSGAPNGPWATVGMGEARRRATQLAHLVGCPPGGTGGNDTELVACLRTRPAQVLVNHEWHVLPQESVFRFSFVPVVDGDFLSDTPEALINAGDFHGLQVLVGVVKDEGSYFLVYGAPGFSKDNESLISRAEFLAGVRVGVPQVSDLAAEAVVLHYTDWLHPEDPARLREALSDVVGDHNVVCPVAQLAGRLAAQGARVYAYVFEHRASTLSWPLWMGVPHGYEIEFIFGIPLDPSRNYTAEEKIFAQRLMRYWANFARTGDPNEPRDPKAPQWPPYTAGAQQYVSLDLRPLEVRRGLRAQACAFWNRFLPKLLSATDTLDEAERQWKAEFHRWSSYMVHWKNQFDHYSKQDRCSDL
Sequence of D(1A) dopamine receptor (P21728 whole entry): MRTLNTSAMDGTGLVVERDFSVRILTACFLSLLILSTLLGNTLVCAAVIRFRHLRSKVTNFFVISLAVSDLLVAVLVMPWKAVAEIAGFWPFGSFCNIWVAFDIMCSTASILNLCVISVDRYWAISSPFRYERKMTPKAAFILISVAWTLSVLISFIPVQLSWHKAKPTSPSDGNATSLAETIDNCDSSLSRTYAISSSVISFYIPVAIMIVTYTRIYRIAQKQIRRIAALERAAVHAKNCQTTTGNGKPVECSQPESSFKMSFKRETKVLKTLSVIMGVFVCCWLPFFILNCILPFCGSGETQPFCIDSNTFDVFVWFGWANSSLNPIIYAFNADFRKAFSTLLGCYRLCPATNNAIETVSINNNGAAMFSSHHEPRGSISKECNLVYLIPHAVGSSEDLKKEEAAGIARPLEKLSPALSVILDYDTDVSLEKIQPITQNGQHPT
Sequence of 3',5'-cyclic-AMP phosphodiesterase 4A (P27815 whole entry): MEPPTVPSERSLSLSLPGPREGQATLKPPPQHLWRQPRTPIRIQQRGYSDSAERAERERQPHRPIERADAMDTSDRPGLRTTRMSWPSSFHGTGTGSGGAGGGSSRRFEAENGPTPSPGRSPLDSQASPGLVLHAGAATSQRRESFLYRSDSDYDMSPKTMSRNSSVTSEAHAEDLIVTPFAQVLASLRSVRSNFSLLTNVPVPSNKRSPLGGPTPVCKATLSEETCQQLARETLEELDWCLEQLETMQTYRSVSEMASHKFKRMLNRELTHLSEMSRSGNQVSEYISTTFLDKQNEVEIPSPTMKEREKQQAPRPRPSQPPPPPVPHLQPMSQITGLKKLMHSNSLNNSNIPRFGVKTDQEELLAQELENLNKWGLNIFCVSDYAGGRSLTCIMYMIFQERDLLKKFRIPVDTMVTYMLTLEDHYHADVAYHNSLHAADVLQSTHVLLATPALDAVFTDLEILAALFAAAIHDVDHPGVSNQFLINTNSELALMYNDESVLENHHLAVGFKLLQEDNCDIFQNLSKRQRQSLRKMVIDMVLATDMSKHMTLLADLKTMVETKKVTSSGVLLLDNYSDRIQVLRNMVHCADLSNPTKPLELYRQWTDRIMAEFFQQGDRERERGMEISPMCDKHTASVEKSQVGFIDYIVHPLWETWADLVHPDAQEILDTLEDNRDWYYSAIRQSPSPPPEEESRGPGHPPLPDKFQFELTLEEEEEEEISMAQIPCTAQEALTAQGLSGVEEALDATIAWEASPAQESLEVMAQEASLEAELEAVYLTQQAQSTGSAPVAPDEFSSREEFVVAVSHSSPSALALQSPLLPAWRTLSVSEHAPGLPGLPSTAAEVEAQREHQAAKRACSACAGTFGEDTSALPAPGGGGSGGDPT
Sequence of Prostaglandin G/H synthase 1 (P23219 whole entry): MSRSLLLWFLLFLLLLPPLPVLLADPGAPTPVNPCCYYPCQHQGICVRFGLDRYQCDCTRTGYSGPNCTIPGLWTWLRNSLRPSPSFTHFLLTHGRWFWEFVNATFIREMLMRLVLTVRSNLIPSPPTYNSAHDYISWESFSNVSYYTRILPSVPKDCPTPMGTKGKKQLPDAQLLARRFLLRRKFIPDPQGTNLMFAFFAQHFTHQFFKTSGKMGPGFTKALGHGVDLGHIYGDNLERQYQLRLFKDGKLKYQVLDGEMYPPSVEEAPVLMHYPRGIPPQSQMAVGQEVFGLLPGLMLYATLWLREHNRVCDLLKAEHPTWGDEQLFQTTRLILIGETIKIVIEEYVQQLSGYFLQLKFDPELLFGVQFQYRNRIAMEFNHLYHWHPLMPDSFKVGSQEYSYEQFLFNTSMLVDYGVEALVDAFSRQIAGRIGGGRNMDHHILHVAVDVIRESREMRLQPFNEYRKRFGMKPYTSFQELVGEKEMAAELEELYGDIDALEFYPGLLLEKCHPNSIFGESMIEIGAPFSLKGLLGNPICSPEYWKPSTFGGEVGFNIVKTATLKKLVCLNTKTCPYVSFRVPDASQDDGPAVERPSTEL
Sequence of Mu-type opioid receptor (P35372 whole entry): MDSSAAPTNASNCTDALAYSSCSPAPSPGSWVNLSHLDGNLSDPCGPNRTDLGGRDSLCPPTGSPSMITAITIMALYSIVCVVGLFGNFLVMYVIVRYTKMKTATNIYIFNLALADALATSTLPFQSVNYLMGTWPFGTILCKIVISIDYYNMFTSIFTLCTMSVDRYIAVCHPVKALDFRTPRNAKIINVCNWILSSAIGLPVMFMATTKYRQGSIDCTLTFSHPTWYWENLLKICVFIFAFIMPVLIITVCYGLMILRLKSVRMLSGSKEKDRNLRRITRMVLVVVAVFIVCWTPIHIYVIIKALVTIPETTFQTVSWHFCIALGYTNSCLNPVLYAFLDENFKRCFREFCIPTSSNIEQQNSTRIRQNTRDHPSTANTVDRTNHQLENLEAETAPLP
Sequence of Sodium-dependent noradrenaline transporter (P23975 whole entry): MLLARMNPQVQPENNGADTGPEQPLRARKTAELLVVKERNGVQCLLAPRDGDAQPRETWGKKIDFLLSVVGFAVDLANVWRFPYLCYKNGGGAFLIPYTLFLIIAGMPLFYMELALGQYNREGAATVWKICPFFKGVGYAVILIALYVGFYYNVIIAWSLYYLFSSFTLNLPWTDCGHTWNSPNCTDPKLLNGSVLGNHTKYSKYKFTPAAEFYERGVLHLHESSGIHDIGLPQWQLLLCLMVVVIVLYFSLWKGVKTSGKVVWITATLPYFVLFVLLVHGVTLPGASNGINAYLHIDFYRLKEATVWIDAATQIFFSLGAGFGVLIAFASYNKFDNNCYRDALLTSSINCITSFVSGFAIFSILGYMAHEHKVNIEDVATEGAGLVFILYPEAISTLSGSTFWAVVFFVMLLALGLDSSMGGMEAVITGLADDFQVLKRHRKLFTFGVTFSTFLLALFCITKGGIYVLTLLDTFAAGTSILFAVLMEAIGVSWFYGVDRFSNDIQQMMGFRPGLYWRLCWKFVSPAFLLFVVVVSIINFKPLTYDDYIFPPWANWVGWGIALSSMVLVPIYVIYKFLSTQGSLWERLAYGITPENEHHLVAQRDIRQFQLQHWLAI
Sequence of Cannabinoid receptor 1 (P21554 whole entry): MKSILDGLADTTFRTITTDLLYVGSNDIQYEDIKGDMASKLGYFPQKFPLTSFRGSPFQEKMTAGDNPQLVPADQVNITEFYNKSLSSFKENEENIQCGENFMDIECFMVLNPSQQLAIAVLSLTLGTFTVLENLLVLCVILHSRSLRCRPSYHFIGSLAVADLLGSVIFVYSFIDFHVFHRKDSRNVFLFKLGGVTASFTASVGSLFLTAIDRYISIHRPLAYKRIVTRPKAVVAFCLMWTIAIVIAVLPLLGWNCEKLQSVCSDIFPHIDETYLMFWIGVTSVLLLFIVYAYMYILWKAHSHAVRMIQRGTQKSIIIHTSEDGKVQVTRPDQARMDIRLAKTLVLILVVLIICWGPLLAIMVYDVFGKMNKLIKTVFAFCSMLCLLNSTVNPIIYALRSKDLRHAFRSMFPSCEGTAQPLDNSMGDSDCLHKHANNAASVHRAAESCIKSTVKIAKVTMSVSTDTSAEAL

Structure (SMILES)	AC50 [1] [µM]	AC50 [2] [µM]	AC50 [3] [µM]	AC50 [4] [µM]	AC50 [5] [µM]	AC50 [6] [µM]	AC50 [7] [µM]	AC50 [8] [µM]	AC50 [9] [µM]	AC50 [10] [µM]	AC50 [11] [µM]	AC50 [12] [µM]	AC50 [13] [µM]
C[N+](C)(C)CCOP(=O)(O)OP(=O)([O-])OC[C@H]1O[C@@H](n2ccc(N)nc2=O)[C@H](O)[C@@H]1O [CITICOLINE]	> 30	> 30	> 30	> 30	> 30	> 30	> 30	> 30	> 30	> 30	> 30	> 30	
COc1ccccc1OC1(C)OC(=O)c2ccccc2O1 (stereo not given) [GUAIMESAL]	> 30	> 30	> 30		> 30	> 30	> 30	> 30	> 30	> 30	> 30	> 30	> 30
O=C(O)Cc1ccccc1Oc1ccc(Cl)cc1Cl [FENCLOFENAC]	> 30	> 30	> 30	> 30	23.6	> 30	> 30	> 30	> 30	> 30	> 30	> 30	> 30
CCCCC1C(=O)N(c2ccccc2)N(c2ccc(O)cc2)C1=O (stereo not given) [OXYPHENBUTAZONE ANHYDROUS]	7.8	> 30	> 30		> 30	> 30	> 30	> 30	> 30	> 30	> 30	> 30	
COC(=O)[C@@H](N)Cc1ccc(O)c(O)c1 [MELEVODOPA]	> 30	> 30	> 30		22.1	> 30	> 30	> 30	> 30	> 30	> 30	> 30	
CN(C)c1ccc(O)c2c1C[C@H]1C[C@H]3[C@H](N(C)C)C(O)=C(C(N)=O)C(=O)[C@@]3(O)C(O)=C1C2=O [MINOCYCLINE]	> 30	> 30	> 30		> 30	> 30	> 30	> 30	> 30	> 10	> 30	> 30	
